The values below come from US20100003711A1, “Methods to identify therapeutic agents” (THE SCRIPPS RESEARCH INSTITUTE, priority 2005, published 2010).

In one series the target is LDL / apoB-100 (Homo sapiens, UniProt P04114). Kind of series: Circular dichroism of LDL secondary structure. Particulars: LDL 100 μg/ml with 10 μM compound, PBS pH 7.4, 37° C., up to 48 h; normal LDL ~40±2%. In general terms: Circular dichroism is the unequal absorption of left and right circularly polarised light.
The nature of series [1]: Aldolization of ketoaldehyde 4a with amino acids (1H NMR). In kind it is physicochemical. Particulars: DMSO-d6 (800 μl) and D2O (80 μl) without amino acid. On the procedure: Aldolization of ketoaldehyde 4a with amino acids. […] To this solution was added 1 equivalent of either: a) L-proline, b) glycine, c) L-lysine hydrochloride or d) L-lysine ethyl ester dihydrochloride. At time points the samples were analyzed by ^1H NMR.

The test system of a further series is ICAM-1 (CD54). Kind of series: Endothelial adhesion molecule expression by ELISA, ICAM-1. It counts as cell-based, human. On the procedure: Endothelial cell surface adhesion molecule expression was measured by ELISA, using anti-human CD54 (ICAM-1), CD106 (VCAM-1) and CD62E (E-Selectin) antibodies (Leinco Technologies, Inc., St. Louis, Mo.). The ELISA method was modified from previously described procedures.
Cells were then incubated with antibodies to VCAM-1, E-selectin, or ICAM-1 diluted 1:400 in PBS containing 5% FCS at 37° C. for 30 min. Wells were washed two times with PBS, then incubated with horseradish peroxidase (HRP)-conjugated goat anti-mouse IgG (Southern Biotechnology Associates, Birmingham, Ala., USA) in PBS/5% FCS at 37° C. for 30 min. The wells were washed four times with PBS, then incubated with H2O2/3,3′,5,5′-tetramethyl-benzidine peroxidase substrate (Pierce Chemical, Rockford, Ill., USA) for 30 min in the dark. The reaction was stopped by adding 25 μl of 8 N H2SO4, and the plates read on a microplate reader, blanking on wells stained with only secondary antibody. Each assay was performed in triplicate and the data are reported as the mean±SEM as a percentage of the expression level of the vehicle. To study the effect of cholesterol ozonation product 5a concentration (5-50 μM) on E-selectin expression, the assay was performed in an identical fashion as described above, with each point being the mean±SEM of at least duplicate measurements.
A general note: In an ELISA, binding on a coated surface is turned into a signal by an enzyme label.

In another series the test system is J774.1 macrophages. Kind of series: Lipid-loading assay (foam cell formation). In kind it is cell-based, murine. Particulars: LDL 100 μg/mL with 4a or 5a (20 μM), 72 h, unactivated J774.1 macrophages. On the procedure: Lipid-loading assay (foam cell formation). J774.1 macrophages were incubated in ATCC-recommended media containing 10% fetal bovine serum under a controlled atmosphere of 5 or 7% CO2 at 37° C., in 8-well chamber slides. […] At termination, cells were washed twice with PBS (pH 7.4). The cells were then fixed with 6% (v/v) paraformaldehyde in PBS for 30 minutes, rinsed with propylene glycol for 2 minutes and lipids were stained with 5 mg/ml Oil Red 0 for 8 minutes. The cells were counterstained with Harris' hematoxylin for 45 seconds, and background staining was removed with 6% paraformaldehyde followed by washing once in PBS and once in tap water. Cover slips were mounted onto the glass slides using glycerol and the slide preparations were examined by light microscopy. The number of lipid-laden cells was scored out of a total of at least 100 cells counted in a single field in each slide, and expressed as a percentage of total cells. Photographs were taken at 100× magnification.

SMILES strings stand for the structures.

LDL / apoB-100, sequence (P04114 28-4563): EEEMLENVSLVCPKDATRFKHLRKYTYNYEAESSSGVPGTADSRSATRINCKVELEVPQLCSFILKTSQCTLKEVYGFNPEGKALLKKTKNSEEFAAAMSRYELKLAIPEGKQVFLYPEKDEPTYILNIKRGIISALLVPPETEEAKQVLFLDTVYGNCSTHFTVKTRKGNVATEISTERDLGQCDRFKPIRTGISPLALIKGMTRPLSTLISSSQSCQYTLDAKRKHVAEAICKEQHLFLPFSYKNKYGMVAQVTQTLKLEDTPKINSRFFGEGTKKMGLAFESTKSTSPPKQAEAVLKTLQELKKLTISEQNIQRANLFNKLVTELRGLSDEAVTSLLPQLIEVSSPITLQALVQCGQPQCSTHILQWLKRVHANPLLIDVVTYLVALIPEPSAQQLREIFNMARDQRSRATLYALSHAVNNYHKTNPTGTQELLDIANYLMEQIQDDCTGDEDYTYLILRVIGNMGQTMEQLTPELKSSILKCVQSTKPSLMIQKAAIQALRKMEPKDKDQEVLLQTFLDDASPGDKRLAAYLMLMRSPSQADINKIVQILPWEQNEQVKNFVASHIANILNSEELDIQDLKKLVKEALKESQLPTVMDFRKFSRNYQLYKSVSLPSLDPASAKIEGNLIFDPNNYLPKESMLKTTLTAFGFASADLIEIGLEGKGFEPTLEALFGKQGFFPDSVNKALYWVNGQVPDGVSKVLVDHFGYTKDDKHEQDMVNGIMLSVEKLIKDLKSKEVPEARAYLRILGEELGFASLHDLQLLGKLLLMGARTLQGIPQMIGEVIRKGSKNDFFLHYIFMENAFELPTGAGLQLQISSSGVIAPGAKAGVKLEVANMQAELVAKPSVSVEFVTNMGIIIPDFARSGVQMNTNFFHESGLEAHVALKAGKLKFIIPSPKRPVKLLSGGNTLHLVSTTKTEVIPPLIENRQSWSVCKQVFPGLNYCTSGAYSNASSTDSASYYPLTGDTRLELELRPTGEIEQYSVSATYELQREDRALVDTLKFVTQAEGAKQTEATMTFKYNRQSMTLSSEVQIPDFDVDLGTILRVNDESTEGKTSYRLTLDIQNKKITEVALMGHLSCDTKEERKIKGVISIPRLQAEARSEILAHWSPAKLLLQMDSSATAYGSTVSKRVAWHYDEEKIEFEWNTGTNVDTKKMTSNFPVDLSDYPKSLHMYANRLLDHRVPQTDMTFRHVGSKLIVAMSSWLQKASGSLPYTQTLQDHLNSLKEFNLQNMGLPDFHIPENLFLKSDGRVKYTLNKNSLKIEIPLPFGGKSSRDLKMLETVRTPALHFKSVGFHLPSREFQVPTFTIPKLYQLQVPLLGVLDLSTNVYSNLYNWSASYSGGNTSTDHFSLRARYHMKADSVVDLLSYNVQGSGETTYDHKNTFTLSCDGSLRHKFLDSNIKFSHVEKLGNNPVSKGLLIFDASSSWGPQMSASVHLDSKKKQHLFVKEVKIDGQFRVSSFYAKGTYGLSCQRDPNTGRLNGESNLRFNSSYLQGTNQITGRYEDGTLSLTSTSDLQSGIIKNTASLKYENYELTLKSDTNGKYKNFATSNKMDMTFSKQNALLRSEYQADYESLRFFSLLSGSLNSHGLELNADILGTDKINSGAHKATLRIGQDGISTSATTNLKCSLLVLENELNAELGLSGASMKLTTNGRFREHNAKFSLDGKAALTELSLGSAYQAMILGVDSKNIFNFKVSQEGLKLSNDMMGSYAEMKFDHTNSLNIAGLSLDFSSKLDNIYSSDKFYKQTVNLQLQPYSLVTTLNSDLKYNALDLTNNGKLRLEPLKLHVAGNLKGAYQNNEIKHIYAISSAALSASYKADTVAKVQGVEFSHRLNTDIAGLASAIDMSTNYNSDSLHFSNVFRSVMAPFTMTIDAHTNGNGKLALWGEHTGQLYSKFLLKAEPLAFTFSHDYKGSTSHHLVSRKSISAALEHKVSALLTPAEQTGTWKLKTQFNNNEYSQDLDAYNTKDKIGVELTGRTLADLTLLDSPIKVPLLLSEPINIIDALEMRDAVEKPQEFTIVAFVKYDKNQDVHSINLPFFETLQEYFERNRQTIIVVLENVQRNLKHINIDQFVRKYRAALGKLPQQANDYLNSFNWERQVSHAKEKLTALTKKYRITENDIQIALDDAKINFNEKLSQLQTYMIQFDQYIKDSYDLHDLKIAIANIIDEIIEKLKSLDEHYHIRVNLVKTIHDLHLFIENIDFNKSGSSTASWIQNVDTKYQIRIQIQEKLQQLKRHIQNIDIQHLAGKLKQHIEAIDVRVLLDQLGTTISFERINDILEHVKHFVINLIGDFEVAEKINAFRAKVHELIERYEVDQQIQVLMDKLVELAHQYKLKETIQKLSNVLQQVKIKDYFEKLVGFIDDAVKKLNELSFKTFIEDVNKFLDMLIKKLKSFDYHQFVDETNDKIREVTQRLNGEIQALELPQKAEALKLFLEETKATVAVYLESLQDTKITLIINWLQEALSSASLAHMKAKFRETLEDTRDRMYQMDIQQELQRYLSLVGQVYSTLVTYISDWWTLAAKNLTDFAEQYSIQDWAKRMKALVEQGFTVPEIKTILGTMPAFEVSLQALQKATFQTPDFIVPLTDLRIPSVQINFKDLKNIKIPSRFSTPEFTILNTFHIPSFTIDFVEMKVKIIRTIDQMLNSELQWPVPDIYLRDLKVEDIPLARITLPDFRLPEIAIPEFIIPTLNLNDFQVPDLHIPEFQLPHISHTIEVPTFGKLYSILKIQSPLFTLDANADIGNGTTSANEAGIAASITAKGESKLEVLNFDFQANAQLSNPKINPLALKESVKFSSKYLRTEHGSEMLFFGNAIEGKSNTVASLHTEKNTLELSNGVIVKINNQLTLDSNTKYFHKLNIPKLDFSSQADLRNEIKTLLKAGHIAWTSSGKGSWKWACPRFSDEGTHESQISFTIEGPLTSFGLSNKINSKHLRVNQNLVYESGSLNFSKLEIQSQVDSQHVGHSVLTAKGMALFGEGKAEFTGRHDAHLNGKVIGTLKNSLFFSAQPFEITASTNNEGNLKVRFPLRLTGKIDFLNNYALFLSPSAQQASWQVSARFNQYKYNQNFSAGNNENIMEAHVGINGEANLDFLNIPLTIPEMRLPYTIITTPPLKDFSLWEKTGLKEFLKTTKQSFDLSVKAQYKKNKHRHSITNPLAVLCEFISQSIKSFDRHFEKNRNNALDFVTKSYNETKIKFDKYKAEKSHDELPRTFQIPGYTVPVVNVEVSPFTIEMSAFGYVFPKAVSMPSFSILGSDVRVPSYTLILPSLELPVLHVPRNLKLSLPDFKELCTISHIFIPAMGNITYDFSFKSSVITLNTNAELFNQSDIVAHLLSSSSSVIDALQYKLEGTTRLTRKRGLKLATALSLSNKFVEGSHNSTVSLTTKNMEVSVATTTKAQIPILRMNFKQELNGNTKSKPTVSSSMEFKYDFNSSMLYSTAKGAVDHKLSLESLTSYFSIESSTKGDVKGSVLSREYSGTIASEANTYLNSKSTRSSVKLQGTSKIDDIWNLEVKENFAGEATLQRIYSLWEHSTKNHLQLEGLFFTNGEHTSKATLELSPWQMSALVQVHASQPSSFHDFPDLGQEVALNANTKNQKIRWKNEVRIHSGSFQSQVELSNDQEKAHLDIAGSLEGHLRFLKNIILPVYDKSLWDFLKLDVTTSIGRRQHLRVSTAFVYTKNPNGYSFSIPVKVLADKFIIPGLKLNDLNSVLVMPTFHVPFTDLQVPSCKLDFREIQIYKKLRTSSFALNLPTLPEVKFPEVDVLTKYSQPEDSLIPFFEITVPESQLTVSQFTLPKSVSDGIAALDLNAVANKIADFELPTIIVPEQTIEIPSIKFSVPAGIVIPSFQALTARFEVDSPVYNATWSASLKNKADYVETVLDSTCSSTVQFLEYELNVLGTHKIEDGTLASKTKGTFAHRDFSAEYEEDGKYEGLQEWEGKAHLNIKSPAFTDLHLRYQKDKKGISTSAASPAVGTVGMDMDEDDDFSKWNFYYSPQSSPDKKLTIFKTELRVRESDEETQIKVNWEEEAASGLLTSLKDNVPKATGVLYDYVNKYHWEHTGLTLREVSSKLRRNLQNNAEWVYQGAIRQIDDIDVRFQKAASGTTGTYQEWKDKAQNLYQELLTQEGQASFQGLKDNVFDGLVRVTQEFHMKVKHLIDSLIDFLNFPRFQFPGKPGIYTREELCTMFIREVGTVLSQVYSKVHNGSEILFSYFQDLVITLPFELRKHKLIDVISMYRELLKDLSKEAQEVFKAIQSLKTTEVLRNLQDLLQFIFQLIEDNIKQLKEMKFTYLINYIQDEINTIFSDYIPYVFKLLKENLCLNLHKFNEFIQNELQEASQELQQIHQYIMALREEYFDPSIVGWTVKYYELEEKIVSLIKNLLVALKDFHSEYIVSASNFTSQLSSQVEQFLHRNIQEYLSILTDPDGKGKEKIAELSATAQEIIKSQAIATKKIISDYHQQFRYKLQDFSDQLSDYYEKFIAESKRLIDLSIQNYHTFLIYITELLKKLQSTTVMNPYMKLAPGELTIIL
Protocol for LDL / apoB-100: Spectra were recorded in the peptidic range (200-260 nm). To increase the signal-to-noise ratio, multiple spectra (three) were averaged for each measurement. The deconvolution of the molar elipticity spectra for each measurement was performed using the CDPro suite of software (by Narasimha Sreerama from Colorado State University) on a Dell PC.

Regarding `CC(C)CCC[C@@H](C)[C@H]1CCC2C(CC=O)C([C@@]3(C)CC[C@H](O)CC3=O)CC[C@@]21C` (some centres unmarked) [4a, 3βHydroxy-5-oxo-5,6-secocholestan-6-al], the “a helical structure of LDL” value at LDL / apoB-100 is around 23±5%. The “aldolization of 4a” value in series [1] was “no aldolization”. The ICAM-1 levels entry in the series on ICAM-1 (CD54) (HAAE-1, 25 μM compound in the presence of LDL, 4 h) is reported as “remain unchanged”. Moreover, the “integrin expression (ICAM-1)” value with ICAM-1 (CD54) (HAAE-1, not complexed with LDL) is on record as “no effects”. Also, the “lipid-loading of macrophages / foam cell formation” value in the series on J774.1 macrophages is “began lipid-loading and foam cells began to appear”.
